Results from US20060045884A1, “Vaccines for autoimmune and infectious disease” (Board of Regents, priority 2004, published 2006).
Entries after “also recorded” stand apart in the source; their conditions may differ. Where two headings read alike, the source gives them in different places.

Columns and labels:
peptide-loaded T2 cells = assay: Induction of primary CTL responses with peptide-pulsed T2 cells and 4-hr cytotoxicity against peptide-loaded T2 cells; format: cell-based, human; conditions: for donors in which peptide-stimulated CTL lines killed CCNE1144-152- and CCNE2144-152-pulsed T2 cells: PBMCs from 7 HLA-A2 positive normal donors; for peptide-specific lysis by CTL line generated against the MPO peptide: T2 cells loaded with 2.0 μg/mL of the same peptide; for peptide-specific lysis by CTL line generated against the peptide: T2 cells loaded with 1.0 μg/mL of the same peptide, E:T 50:1 to 6:1; for elicitation of peptide specific CTL lines: different donors and differing peptide concentrations
[1] = system: HLA-A2.1 positive human myeloid leukemia cells; assay: 4-hr cytotoxicity of peptide-specific CTL against leukemia cells, normal marrow and cell lines; format: cell-based; conditions: not non-transfected K562
Procedure: CTL cytotoxicity assay. A semi-automated minicytotoxicity assay was used to determine specific lysis as described previously (Molldrem, 2000; Molldrem et al., 1996). Briefly, effector cells were prepared in doubling dilutions from 6×10^3 to 25×10^3 cells/well and were plated in 40 μl, 60-well Terasaki trays (Robbins Scientific, Sunnyvale, Calif., USA) with six replicates per dilution. Target cells (T2 cells, marrow-derived leukemic cells, or BM from a healthy donor) at a concentration of 2×10^6 cells/ml were stained with 10 μg/ml of Calcein-AM (Molecular Probes Inc.) for 60 min at 37° C. […] Wells with target cells alone and medium alone were used for maximum (max) and minimum (min.) fluorescence emission, respectively. After 4 hr incubation at 37° C. in 5% CO2, 5 μl FluoroQuench (One Lambda Inc., Canoga Park, Calif., USA) was added to each well, and the trays were centrifuged for 1 min at 60 g before measurement of fluorescence using an automated CytoFluor II plate reader (PerSeptive Biosystems, Framingham, Mass., USA). The percentage of lysis was calculated as follows: % lysis={1−[(mean experimental mission−mean min.)/(mean max−mean min.)]}×100%.
PR1 specific CTL preferentially lyse human myeloid leukemia cells. It was next determined whether the PR1-specific CTL line was capable of lysing allogeneic human myeloid leukemia cells from HLA-A2.1 positive individuals. […]

HLA-A2.1 = HLA-A2.1 (Homo sapiens, UniProt P04439, D140Y/D185E/D98H/E176V/E277Q/G131W/G231S/I119V/I121R/I166T/I218V/L300P/L318F/N151K/N90K/P208A/P217A/Q86G/Q94H/R138H/R169H/T345S); assay: Peptide binding: HLA-A2.1 surface expression on peptide-coated T2 cells by indirect flow cytometry; conditions: for peptide binding to HLA-A*0201, fluorescence intensity versus positive control peptide (Influenza B Nuclear Protein): T2 cells pulsed 18 hr; for Median Channel of Fluorescence of HLA-A2 Expression on T2: background HLA-A2 without peptide 22; for surface HLA-A2.1 expression compared with T2 cells with no added peptide: result in words
[2] = system: PBMC from HLA-A2.1+ healthy donor; assay: PR1/HLA-A2 tetramer staining of CTL elicited from healthy donor PBMC with PR1-pulsed T2 cells; format: cell-based, human
[3] = system: PBMCs from HLA-A2+ CML patients; format: cell-based, human
[4] = system: PR1-CTL from a healthy donor; assay: Annexin V staining of PR1-CTL 16 to 18 hr after challenge with peptide-pulsed T2 cells; format: cell-based, human; conditions: for apoptosis of high avidity PR1-CTL: T2 cells pulsed with 20 μM peptide
Source text: High PR1 concentration and proteinase 3-overexpressing CML cells induce apoptosis of high avidity PR1-specific CTL. […] All high avidity PR1-CTL exposed to high dose PR1 were dead after 36 to 48 hr of co-culture.

[5] = system: HLA-A2+ patients with CML, AML or MDS; assay: Phase I/II PR1 peptide vaccine study; format: in vivo, human; conditions: 9 patients
Source text: To test this in refractory leukemia patients, a phase I/II vaccine study was initiated. HLA-A2^+ patients with CML (interferon-resistant or relapsed after BMT), AML (smoldering relapse or ≧2nd CR) or MDS (RAEB or RAEBt) with no detectable antibodies to proteinase 3 (no detectable cANCA) were eligible. Patients that relapsed after BMT or those ineligible for BMT were also eligible for study. Pregnant patients, HIV+ patients, and those with known vasculitis were excluded. Patients were required to have immunosuppression (i.e. cyclosporine, steroids) discontinued 4 weeks prior to study entry.
Secondarily, clinical responses were assessed by standard criteria with bone marrow biopsy, cytogenetic studies (standard chromosome banding) and molecular studies (PCR for bcr-abl or other known abnormalities such as t(15;17), inv16, etc.) 3 weeks after the last vaccination. Patients were seen and evaluated in clinic every 3 weeks during the study period. Both vialed PR1 peptide (NSC698102) and the adjuvant (Montanide ISA-51, NSC675756) were used in this study.
The overall study was divided into two parts: Phase I consisted of nine patients treated in cohorts of three at 1 of 3 dose levels of 0.25 mg, 0.5 mg, or 1.0 mg of PR1 peptide given subcutaneously in incomplete Freund's adjuvant (Montanide ISA-51) and GM-CSF 75 mg subcutaneously every 3 weeks for 3 injections. […]

ILLDWLMEV [CCNE1144-152]
donors in which peptide-stimulated CTL lines killed CCNE1144-152- and CCNE2144-152-pulsed T2 cells (peptide-loaded T2 cells): 3 of 7 | peptide-stimulated CTL lines that killed HLA-A2 transfected K562 leukemic cell line [1]: one of 4

KLNDVLLIQL [PR7V]
peptide binding to HLA-A*0201, fluorescence intensity versus positive control peptide (Influenza B Nuclear Protein) (HLA-A2.1): strong peptide binding

KLLLALAGL [MY2]
peptide-specific lysis by CTL line generated against the MPO peptide (peptide-loaded T2 cells): high specific lysis

ILLDWLLEV [CCNE2144-152]
donors in which peptide-stimulated CTL lines killed CCNE1144-152- and CCNE2144-152-pulsed T2 cells (peptide-loaded T2 cells): 4 of 7

VLQELNVTV [PR1, HLA-A2.1-restricted nonamer (aa 169-177) derived from proteinase 3]
surface HLA-A2 expression on T2 cells versus PR1 concentration (HLA-A2.1; PR1 from 2 μM and 200 μM): increases linearly | Median Channel of Fluorescence of HLA-A2 Expression on T2 (HLA-A2.1): 294 | surface HLA-A2.1 expression compared with T2 cells with no added peptide (HLA-A2.1): increased surface HLA-A2.1 expression | peptide-specific lysis by CTL line generated against the peptide (peptide-loaded T2 cells): high specific lysis | high intensity PR1/HLA-A2 tetramer-staining CTL elicited ([2]; 0.2 μM PR1 weekly for 28 days): 1.3% | median channel of flourescence (MCF) of tetramer staining ([2]; 20 μM PR1): 93 | low avidity PR1-specific CTL elicited ([2]; 20 μM PR1 weekly for 28 days): 3.1% | bulk culture CTL double-positive for anti-CD8 and PR1-tetramer ([2]; 32 day-old PR1-stimulated CTL culture): 4.3% | fraction of CTL line specific for PR1 (CD8/PR1-tetramer) ([2]; day 17 CTL line elicited against PR1): 2.4% | PR1-CTL induced ([2]; ≦0.02 μM PR1): < 0.1% | avidity of PR1-CTL that could be elicited from CML patients ([3]; CML #1, #2, #3, weekly PR1 stimulation): Only low-avidity PR1-CTLs could be elicited; also recorded: Only low avidity PR1-CTL could be elicited | lowest PR1 concentration eliciting PR1-CTLs ([3]; patient 1): ≥ 0.2 µM | lowest PR1 concentration eliciting low-avidity PR1-CTLs ([3]; patient 2): 0.02 µM | lowest PR1 concentration eliciting low-avidity PR1-CTLs ([3]; patient 3): 0.002 µM | apoptosis of high avidity PR1-CTL [4]: underwent apoptosis | apoptosis of low avidity PR1-CTL ([4]; high or low concentrations of PR1): did not undergo apoptosis | PR1-specific CTL immunity elicited (by tetramer staining) [5]: 6 of 9 | complete remissions [5]: 2 patients

LLSYFKQPV [MY3]
elicitation of peptide specific CTL lines (peptide-loaded T2 cells): No peptide specific CTL lines could be elicited

KLNDILLIQL [PR7I]
peptide binding to HLA-A*0201, fluorescence intensity versus positive control peptide (Influenza B Nuclear Protein) (HLA-A2.1): strong peptide binding

Influenza nucleoprotein: control influenza peptide, Influenza B nucleoprotein (aa 85-94), known high binding affinity to HLA-A2.1 (KLGEFYNQMM) [reference compound]
Median Channel of Fluorescence of HLA-A2 Expression on T2 (HLA-A2.1): 194 | apoptosis of high avidity PR1-CTL [4]: no apoptosis was observed

LIQPFMFRL [MY5]
elicitation of peptide specific CTL lines (peptide-loaded T2 cells): No peptide specific CTL lines could be elicited

RLFPDFFTRV [PR2]
Median Channel of Fluorescence of HLA-A2 Expression on T2 (HLA-A2.1): 273 | surface HLA-A2.1 expression compared with T2 cells with no added peptide (HLA-A2.1): increased surface HLA-A2.1 expression | peptide-specific lysis by CTL line generated against the peptide (peptide-loaded T2 cells): did not demonstrate any significant cytotoxicity

NLVPMVATV [pp65 peptide, reference compound]
avidity of CTLs elicited with pp65 peptide-pulsed T2 cells [3]: high-avidity p65-specific CTLs

RLFEQVMRI [MY4]
peptide-specific lysis by CTL line generated against the MPO peptide (peptide-loaded T2 cells): tested similarly

SLWRRPFNV [MY1]
elicitation of peptide specific CTL lines (peptide-loaded T2 cells): No peptide specific CTL lines could be elicited
